Source: patent US20050170481A1, “Novel (d)-2-hydroxy-acid oxidase derived from microorganism and biochemical process for producing glyoxylic acid therewith” (priority 2002, published 2005)

What was measured:
[1] = tested on: (D)-2-hydroxy-acid oxidase (enzyme of the present invention); experiment: Oxidase reaction activity (H2O2 / 4-AA / TOOS / POD, absorbance at 555 nm), substrate specificity; format: biochemical, Arthrobacter sp. KNK-GA1 strain; settings: for Relative activity (%): Table 2, 30° C., 100 seconds; for activity of the (D)-2-hydroxy-acid oxidase for the substrate (in words): summary of Table 1
Description: The reaction activity of oxidase is basically measured by adding 0.1 ml of an enzyme solution to 0.9 ml of a 100 mM phosphate buffer (pH 7) having the composition below, and measuring an increase in absorbance at a wavelength of 555 nm at 30° C. In the present invention, when 1 μmol of H2O2 is produced for 1 minute, the enzyme activity is defined as 1 unit.
The enzymatic properties of the enzyme produced in Example 6 were measured.
(§1) The enzyme activity was basically measured by reacting 1.0 ml of a reaction solution containing 10 mM of a substrate such as glycolic acid, 0.67 mM of 4-AA, 1.09 mM of TOOS, 2 U/ml of POD, and 0.1 ml of an enzyme solution in a 100 mM phosphate buffer or Tris buffer at 30° C. for 100 seconds, and then measuring an increase in absorbance at a wavelength of 555 nm.

[2] = target: T1, glycolate oxidase (produced by Sigma Corporation) derived from spinach (Spinacia oleracea, UniProt P05414); experiment: Substrate specificity of glycolate oxidase derived from spinach; format: biochemical
T1 construct: purchased Sigma Corporation
T1 sequence (P05414 1-369): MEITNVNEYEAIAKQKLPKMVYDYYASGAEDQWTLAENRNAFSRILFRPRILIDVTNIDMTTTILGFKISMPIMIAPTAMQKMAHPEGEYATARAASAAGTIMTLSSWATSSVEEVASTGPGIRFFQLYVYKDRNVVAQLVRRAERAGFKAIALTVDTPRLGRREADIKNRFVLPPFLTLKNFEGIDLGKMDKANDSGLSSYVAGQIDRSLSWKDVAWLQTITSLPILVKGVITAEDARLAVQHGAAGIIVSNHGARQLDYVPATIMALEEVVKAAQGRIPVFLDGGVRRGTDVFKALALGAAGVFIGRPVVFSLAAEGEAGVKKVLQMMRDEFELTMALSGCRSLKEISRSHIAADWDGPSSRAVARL
Description: In Table 1, the activity of each enzyme for glycolic acid is […] regarded as 100%.
as §1
The activity of glycolate oxidase (produced by Sigma Corporation) derived from spinach was examined for various 2-hydroxy acid compounds, and the results were compared with the results of the enzyme of the present invention produced in Example […].

[3] = tested on: glycolate oxidase; settings: Table 1; activity for glycolic acid regarded as 100%; J. Phycol., 32, 790-798, 1996; cited from earlier work
[4] = tested on: glycolate oxidase; settings: Table 1; activity for glycolic acid regarded as 100%; J. Biochem., 16, 1373-1378, 1984; cited from earlier work
[5] = tested on: lactic acid oxidase derived from soil gram-negative bacteria; settings: Appl. Biochem. Biotechnol., 56, 277-288, 1996; cited from earlier work
[6] = Table 1, activity for glycolic acid regarded as 100%

Row | Molecule | Relative activity (%) ([1]; Substrate 10 mM) | Relative activity (%), Spinach [2, 6] [%] | Relative activity (%), Spinach ([2]; Table 3, Substrate 10 mM) [%] | Relative Activity (%), Spatoglossum pacificum [3] [%] | Relative Activity (%), Lemna minor [4] [%] | Relative activity (%), Enzyme of this invention [1, 6] [%] | Relative activity (%), Enzyme of this invention ([1]; Table 3, Substrate 10 mM) [%] | activity of the (D)-2-hydroxy-acid oxidase for the substrate (in words) [1] | activity for L-lactic acid as rate of the activity for D-lactic acid [5] [%]
1 | 1-propanol | 0 |  |  |  |  |  |  |  | 
2 | CCC(O)C(=O)O (racemic) [DL-2-hydroxybutyric acid] | 42 | 71 | 71 | 55 | 57 | 42 | 42 |  | 
3 | CCCCC(O)C(=O)O (racemic) [DL-2-hydroxycaproic acid] | 7 | 29 | 29 |  | 13 | 7 | 7 |  | 
4 | CC(C)CC(O)C(=O)O (racemic) [DL-2-hydroxyisocaproic acid] | 10 | 51 | 51 |  |  | 10 | 10 | shows activity | 
5 | CCCC(O)C(=O)O (racemic) [DL-2-hydroxyvaleric acid] | 32 | 70 | 70 | 91 | 52 | 32 | 32 |  | 
6 | O=C(O)C(O)CO (racemic) [DL-glyceric acid] | 54 |  | 76 |  |  |  | 54 |  | 
7 | O=C(O)CC(O)C(=O)O (racemic) [DL-malic acid] | 0 |  |  |  |  |  |  |  | 
8 | CC(O)CO (stereo not shown) [1,2-propanediol] | 0 |  |  |  |  |  |  |  | 
9 | CC(C)O [2-propanol] | 0 |  |  |  |  |  |  |  | 
10 | C[C@@H](O)C(=O)O [D-lactic acid] | 82 | 0 | 0 | 0 | 7 | 82 | 82 | high activity | 
11 | CCO [Ethanol] | 0 |  |  |  |  |  |  |  | 
12 | OCCO [Ethylene glycol] | 0 |  |  |  |  |  |  |  | 
13 | OCC(O)CO [Glycerin] | 0 |  |  |  |  |  |  |  | 
14 | O=C(O)CO [Glycolic acid] | 100 | 100 | 100 | 100 | 100 | 100 | 100 | high activity | 
15 | O=CC(=O)O [Glyoxylic acid] |  | 8 |  | 14 | 35 | 4 |  | relatively low activity | 
16 | CC(C)C[C@H](O)C(=O)O [L-2-hydroxyisocaproic acid] | 0 | 68 | 68 | 77 | 30 | 0 | 0 | no activity | 
17 | C[C@H](O)C(=O)O [L-lactic acid] | 0 | 81 | 81 | 26 | 60 | 0 | 0 | no activity | 57
18 | CO [Methanol] | 0 |  |  |  |  |  |  |  | 
19 | O=C(O)CCO [β-hydroxypropionic acid] | 1 |  |  |  |  |  |  |  | 
